Data taken from patent US20220388953A1, “COMPOUNDS WITH ANTIMICROBIAL ACTIVITY” (The Hong Kong Polytechnic University, priority 2018, published 2022).
Values after ≈ are worked out from the molar mass of the structure shown. Like-named read-outs stand apart in the source and are kept apart here.

Columns and labels:
[1] = test system: Streptococcus pneumoniae (Klein) Chester (ATCC 49619); experiment: Antimicrobial assay, broth microdilution (CLSI), MIC; format: cell-based
Procedure: C3 derivatives were synthesized and antimicrobial activity measured against Streptococcus pneumoniae (MIC, minimum inhibitory concentration).
Bacterial Strains was used in this study is Streptococcus pneumoniae (Klein) Chester (ATCC® 49619™)
The antimicrobial activity of the compounds was determined by broth microdilution according to the Clinical & Laboratory Standards Institute (CLSI) guidelines. The test medium was cation-adjusted Mueller-Hinton broth (MH). Serial two-fold dilutions were performed for the tested chemicals starting from 256 μg/mL to 0.5 μg/mL, and the bacterial cell inoculum was adjusted to approximately 5×10^5 CFU/mL. Results were taken after 20 h of incubation at 37° C. The MIC was defined as the lowest concentration of antibiotic with no visible growth. Experiments were performed in duplicates.

β′ CH −σ^A interaction = experiment: ELISA-based binding assay using σ^A and a GST-tagged β′ subunit fragment (β′-CH); design: species or system Bacillus subtilis; settings: inhibitor compounds used at 500 μM (FIG. 3)
Procedure: FIG. 3 depicts a graph showing assay results of hit compound activity determined by ELISA of the β′ CH −σ^A interaction. Inhibitor compounds C1-C7 were used at 500 μM.

[2] = Streptococcus pneumoniae, ATCC49619, 20 h
[3] = ATCC49619, Table 1, Streptococcus pneumoniae ATCC 49619, 20 h at 37° C., read-out: MIC

| SMILES | MIC [1, 2] | melting point | MIC [1, 3] | inhibitory activity against the binding of σ^A and β′ fragments (β′ CH −σ^A interaction) |
| --- | --- | --- | --- | --- |
| O=C(O)c1ccccc1C(=O)c1ccc(Nc2ccc(Cl)c(Cl)c2)c([N+](=O)[O-])c1 [C3-23, 2-(4-((3,4-Dichlorophenyl)amino)-3-nitrobenzoyl)benzoic Acid] | 64 µg/mL (≈ 148 µM) | 115 to 117 °C | – | – |
| CC(C)Nc1cccc(Sc2ccc(C(=O)c3ccccc3C(=O)O)cc2[N+](=O)[O-])c1 [C3-7, 2-(4-((3-(Isopropylamino)phenyl)thio)-3-nitrobenzoyl)benzoic Acid] | – | 130 to 132 °C | 32 µg/mL (≈ 73.3 µM) | – |
| O=C(O)c1ccccc1C(=O)c1ccc(Sc2ccccn2)c([N+](=O)[O-])c1 [C3-4, 2-(3-Nitro-4-(pyridin-2-ylthio)benzoyl)benzoic Acid] | – | 205 to 206 °C | > 256 µg/mL | – |
| O=C(O)c1ccccc1C(=O)c1ccc(Nc2cccc3cccnc23)c([N+](=O)[O-])c1 [C3-26, 2-(3-Nitro-4-(quinolin-8-ylamino)benzoyl)benzoic Acid] | – | 151 to 153 °C | > 256 µg/mL | – |
| NC(=O)c1cccc(Nc2ccc(C(=O)c3ccccc3C(=O)O)cc2[N+](=O)[O-])c1 [C3-22, 2-(4-((3-Carbamoylphenyl)amino)-3-nitrobenzoyl)benzoic Acid] | – | 139 to 141 °C | > 256 µg/mL | – |
| Nc1ccccc1Sc1ccc(C(=O)c2ccccc2C(=O)O)cc1[N+](=O)[O-] [C3-1, 2-(4-((2-Aminophenyl)thio)-3-nitrobenzoyl)benzoic Acid] | – | – | – | possessed inhibitory activity |
| COc1ccccc1Sc1ccc(C(=O)c2ccccc2C(=O)O)cc1[N+](=O)[O-] [C3-2, 2-(4-((2-Methoxyphenyl)thio)-3-nitrobenzoyl)benzoic Acid] | – | 209 to 211 °C | 128 µg/mL (≈ 313 µM) | – |
| O=C(O)c1ccccc1C(=O)c1ccc(Nc2nccs2)c([N+](=O)[O-])c1 [C3-27, 2-(3-Nitro-4-(thiazol-2-ylamino)benzoyl)benzoic Acid] | – | 99 to 100 °C | > 256 µg/mL | – |
| Cc1ccc(Sc2ccc(C(=O)c3ccccc3C(=O)O)cc2[N+](=O)[O-])c(C)c1 [C3-12, 2-(4-((2,4-Dimethylphenyl)thio)-3-nitrobenzoyl)benzoic Acid] | 32 µg/mL (≈ 78.5 µM) | 240 to 242 °C | – | – |
| Nc1ccccc1Nc1ccc(C(=O)c2ccccc2C(=O)O)cc1[N+](=O)[O-] [C3-17, 2-(4-((2-Aminophenyl)amino)-3-nitrobenzoyl)benzoic Acid] | > 256 µg/mL | 201 to 202 °C | – | – |
| O=C(Nc1cccc(Sc2ccc(C(=O)c3ccccc3C(=O)O)cc2[N+](=O)[O-])c1)c1ccccc1 [C3-9, 2-(4-((3-Benzamidophenyl)thio)-3-nitrobenzoyl)benzoic Acid] | – | 144 to 145 °C | 32 µg/mL (≈ 64.2 µM) | – |
| CC(=O)Nc1cccc(Sc2ccc(C(=O)c3ccccc3C(=O)O)cc2[N+](=O)[O-])c1 [C3-8, 2-(4-((3-Acetamidophenyl)thio)-3-nitrobenzoyl)benzoic Acid] | – | 144 to 146 °C | 256 µg/mL (≈ 587 µM) | – |
| O=C(O)c1ccccc1C(=O)c1ccc(NCc2ccccc2)c([N+](=O)[O-])c1 [C3-29, 2-(4-(Benzylamino)-3-nitrobenzoyl)benzoic Acid] | – | 88 to 90 °C | 256 µg/mL (≈ 680 µM) | – |
| O=C(O)c1ccccc1C(=O)c1ccc(Sc2ccccc2F)c([N+](=O)[O-])c1 [C3-3, 2-(4-((2-Fluorophenyl)thio)-3-nitrobenzoyl)benzoic Acid] | – | 175 to 176 °C | 128 µg/mL (≈ 322 µM) | – |
| CCN(CC)C(=O)c1ccc(Sc2ccc(C(=O)c3ccccc3C(=O)O)cc2[N+](=O)[O-])c([N+](=O)[O-])c1 [C3-14, 2-(4-((4-(Diethylcarbamoyl)-2-nitrophenyl)thio)-3-nitrobenzoyl)benzoic Acid] | 256 µg/mL (≈ 489 µM) | 129 to 130 °C | – | – |
| Cc1cccc([N+](=O)[O-])c1Sc1ccc(C(=O)c2ccccc2C(=O)O)cc1[N+](=O)[O-] [C3-15, 2-(4-((2-Methyl-6-nitrophenyl)thio)-3-nitrobenzoyl)benzoic Acid] | 128 µg/mL (≈ 292 µM) | 269 to 271 °C | – | – |
| O=C(O)c1ccccc1C(=O)c1ccc(Sc2ccc(Cl)cc2Cl)c([N+](=O)[O-])c1 [C3-11, 2-(4-((2,4-Dichlorophenyl)thio)-3-nitrobenzoyl)benzoic Acid] | 32 µg/mL (≈ 71.4 µM) | 260 to 262 °C | – | – |
| COc1ccc(Nc2ccc(C(=O)c3ccccc3C(=O)O)cc2[N+](=O)[O-])cc1 [C3-24, 2-(4-((4-Methoxyphenyl)amino)-3-nitrobenzoyl)benzoic Acid] | – | 225 to 226 °C | > 256 µg/mL | – |
| O=C(O)c1ccccc1C(=O)c1ccc(Nc2cccc(CO)c2)c([N+](=O)[O-])c1 [C3-19, 2-(4-((3-(Hydroxymethyl)phenyl)amino)-3-nitrobenzoyl)benzoic Acid] | – | 132 to 134 °C | > 256 µg/mL | – |
